# “And” between values parts separate entries of the source, which are not always exact repeats. Equal entries are not always repeated. “Also recorded” adds a separate entry of the source. Marks after values point to notes of the source that are not given here.
# Key:
# [1] = tested on: bFGF-induced angiogenesis in rat corneas; assay: Corneal angiogenesis, implanted hydron pellets; assay type: in vivo; conditions: pellets with bFGF 100 ng, alone or plus ST104P 500 ng, day 7
# Protocol: FIG. 8. […] The asterisk represents the place of hydron pellet implantation. (B) The neovascularization in rat corneas after implantation bFGF hydron pellets or pellets containing bFGF and ST104P. The length (panel a) and area (panel b) of neovascularized vessels in rat corneas were measured after implantation for 3-7 days. Data are means±SEM (n=8 per group). *P<0.01.
# (§1) All rats were handled in accordance with the Association for Research in Vision and Ophthalmology Resolution on the Use of Animals in Research. Male Sprague-Dawley rats (300-350 g, Animal Center, National Science Counsel, Taipei, Taiwan) were used in this study. All surgical procedures were performed using sterile techniques. The rats were placed under anesthesia with 3% isoflurane in an O2/room air mixture (1:1). Additional topical anesthesia (0.4% benoxinate hydrochloride, Ciba Vision Ltd., Hettlingen, Switzerland) was applied to the corneal surface. The eyes were exposed by grasping the temporal limboconjunctiva using a jeweler's forceps and the central-peripheral corneal intrastromal lamellar pocket (0.6×1.5×1 mm for depth×length×width) was dissected with a surgical blade (Paragon no. 11; Maersk Medical LTD, Sheffield, England). The pockets were extended 1.5 to 2 mm away from the limbus. The pellet was grasped by smooth forceps from the refrigerator (−20° C.) and immediately implanted into the corneal stromal pocket in each eye. Topical antibiotic ointment (0.3% gentamycin; Alcon Cusi, Spain) was applied to the corneal surface to reduce irritation and prevent infection.
# Implanting Hydron Pellets
# (§2) Biomicroscopic Examination
# (§3) Examinations were made with a dissecting microscope and results were photographed on days 3, 5 and 7. Under anesthesia, the maximum vessel length and width of the neovascularization in rat eyes were measured and calibrated using a microscale (Nikon, Tokyo, Japan). The area of neovascularization of the cornea was determined from the dimensions of the triangular growth pattern of the vessels. Photographs of the corneal angiogenesis assay were obtained and digitized in a 640×480 pixel matrix, using a digital camera CoolPix 995 (Nikon, Tokyo, Japan). The operator was blinded to experimental design. Areas containing blood vessels were traced on the computer monitor and calculated with image analysis software (Scion Image 4.02; Scion, Maryland, USA) and reported in square millimeters with determinations. The biomicroscopic assessment was conducted by two independent observers.
# (§4) To analyze the differences between groups, Mann-Whitney U test analysis with two-tailed probability was used and a P value of less than 0.05 was considered significant. Results are presented as means±SEM (standard error of the mean). For each experiment, surgery was performed on all animals in a standardized fashion, and animals were randomized to the different treatment and control groups.
# BAEC [2] = conditions: incubation 6 h, bFGF 100 ng/ml
# Protocol: (§5) FIG. 2. […] After trypsinization, endothelial cells were applied to top wells in Boyden chamber to initiated migration toward chemoattractant bFGF (100 ng/ml) in the bottom wells. The migrated cells on filter were stained and counted. Each point represents mean±SEM of triplicate experiments.
# (§6) The compartments were separated by a polycarbonate filter (8-μm pore size; Nucleopore, Costar, Cambridge, Mass.) coated with 0.005% gelatin to allow cell adhesion. After incubation for 2-4 h in a humidified 5% CO2 atmosphere at 37° C., cells on the upper side of the filter were removed, and those that had migrated to the lower side were fixed in absolute ethanol, stained with 10% Giemsa solution (Merck, Germany), and counted as a mean±SD per filter under five different high power fields.
# EA.hy926 = conditions: EA.hy926, incubation 6 h, bFGF 100 ng/ml
# Protocol: as §5, §6
# BAEC [3] = assay: Tube formation assay in Matrigel; assay type: cell-based, Bovine; conditions: ST104P 20-100 μg/ml
# Protocol: FIG. 3. ST104P abolished the tube formation of endothelial cells. […] Endothelial cells were applied to Matrigel-coated plate in the absence or presence of ST104P. After 8 h, the tubular structures of BAEC cells were monitored and recorded under light microscopy. The pictures were taken at 400× magnification.
# Matrigel (Becton Dickinson; Bedford, Mass.) was diluted with cold serum-free medium to 10 mg/ml. Two hundred μl of the diluted solution were added to each well in 24-well plate and allowed to form a gel at 37° C. for 30 min. […] Two hundred μl of the cell suspension (3×10^4 cells) were then subsequently added to each well and incubated for 6-8 h at 37° C. in 5% CO2. Under these conditions endothelial cells form delicate networks of tubes that are detectable within 2-3 h and are fully developed after 8-12 h.
# EA.hy926 cells = assay: Tube formation assay in Matrigel; assay type: cell-based, Human; conditions: ST104P 20-100 μg/ml
# [4] = tested on: secretion of MMP-2 by endothelial cells; assay: MMPs gelatin zymography of conditioned media of endothelial cells; assay type: cell-based; conditions: endothelial cells (BAEC, EA.hy926), even at dose as low as 10 μg/ml, 24 h
# Protocol: (§7) Matrix Metalloproteinases (MMPs) Zymography
# (§8) Secretion of MMPs by endothelial cells was assessed by 0.1% gelatin-SDS-PAGE zymography. Briefly, endothelial cells near 80% confluence were washed twice with serum-free media and treated with various doses of vasostatin for 24-48 h. Conditioned media were collected and assayed for protein concentration by Bradford assay. Aliquots of conditioned media were subjected to separation with 10% SDS-PAGE containing 0.1% type A gelatin (Sigma; St. Louis, Mo.). After electrophoresis, gel was washed twice with 2.5% Triton X-100, incubated in buffer containing 40 mM Tris-HCl, pH […], 0.01% sodium azide at 37° C. for 12-24 h, stained with 0.25% Coomassie Blue R-250 in 50% methanol and 10% acetic acid for 1 h, and destained with 10% acetic acid, 20% methanol. The gelatinolytic regions by MMPs were visualized as white bands in blue background.
# [5] = tested on: secretion of MMP-9 by endothelial cells; assay: as above; assay type: cell-based; conditions: endothelial cells (BAEC, EA.hy926), even at dose as low as 10 μg/ml, 24 h
# Protocol: as §7, §8
# Lewis lung carcinoma = assay: Treatment of Lewis lung carcinoma in mice; assay type: in vivo
# Protocol: FIG. 6. […] The subcutaneous dorsa of mice were implanted with Lewis lung carcinomas. […] Each point represents mean±SEM for ten mice.
# FIG. 7. […] The subcutaneous dorsa of mice were implanted with Lewis lung carcinomas. […] Each point represents mean±SEM for ten mice.
# Animal study was carried out in the animal facility of Kaohsiung Veterans General Hospital in accordance with institutional guidelines. Male C57BL/6J mice (6- to 8-week-old; Animal Center of National Cheng Kung University, Taiwan) were used. Mice were acclimated and caged in groups of four or less. All mice were fed with a diet of animal chow and water ad libitum. Animals were anesthetized in a methoxyflurane chamber prior to all procedures and were observed until fully recovered. Animals were sacrificed by a lethal dose of methoxyflurane.
# Treatment of Lewis Lung Carcinoma
# C57BL/6J mice were implanted with Lewis lung carcinomas cells using the techniques described previously (O'Reilly et al., Cell 88, 277-285, 1997). Briefly, the LL2 Lewis lung carcinoma cells were resuspended in PBS at the concentration of 2.5×10^6 cells per ml and injected into C57B16/J mice (n=20) with 0.1 ml of the cell suspension to induce tumor. Tumors were measured with a dial-caliper and volumes were determined using the formula width^2×length×0.52. […] In addition, the survival rate of mice in different groups was recorded and analyzed by Kaplan-Mier Survival analysis.
# [6] = Tolerability in animals via various routes (data not shown); assay type: in vivo; conditions: oral or intravenous, intraperitoneal, and intratumor injection
# [7] = tested on: BAEC, HUVEC, EA.hy926 cells, 3T3 cells, GH3 cells, C6 cells, HepG2 cells, SK-Hep-1 cells, MDCK cells; assay: Morphological analysis of endothelial and non-endothelial cells; assay type: cell-based; conditions: all types of cells tested; data not shown
# Text: (§9) FIG. 1. […] The pictures were taken at 400× magnification. […] Each data represent mean±SD of quadruplicate experiments. Asterisks indicated statistic significance versus control (P<0.001).
# different types of cells = assay: Cell proliferation assay, different types of cells; assay type: cell-based; conditions: dose-dependent, 10-500 μg/ml, 48 h
# Text: as §9
# [8] = tested on: bFGF-induced corneal angiogenesis; assay: Corneal angiogenesis, topical application of eye drops; assay type: in vivo
# Protocol: FIG. 9. […] (A) Representative photographs of basic fibroblast growth factor (bFGF)-implanted corneas after topical application of control (phosphate buffered saline, PBS) eye drop (left panel) and ST104P-containing eye drop (50 μg/ml, middle panel; 100 μg/ml, right panel) for 7 days. The asterisk represents the place of hydron pellet implantation. […] Data represent mean±SEM (n=8 per group).
# FIG. 10. Histological analysis of basic fibroblast growth factor (bFGF)-implanted rat cornea after ST104P eye drop treatment. After eye drop treatment for 7 days, the bFGF-implanted rat corneas were harvested and stained with hematoxylin and eosin (200×). […] Neocapillaries (arrowheads) are prominent in the corneal stroma.
# as §1
# Topical Application of ST104P
# as §2, §3
# After treatment, the rat corneas were dissected and fixed in […]. The […]-embedded tissues were sectioned in 5-μm slices, mounted on poly-L-lysine-coated slides and subjected to hematoxylin and eosin staining.
# as §4
# Water solubility = assay type: physicochemical
# [9] = tested on: bFGF-induced angiogenesis in rat corneas; assay: Corneal angiogenesis, implanted hydron pellets; assay type: in vivo; conditions: for Area (mm^2) of neovascularization / Length (mm) of new vessels: day 7
# [10] = tested on: neovascularization in chicken embryos (CAM); assay: Chorioallantoic membrane (CAM) assay
# Protocol: The angiogenesis profiles on CAMs were recorded under dissection microscope.
# Chorioallantoic Membrane (CAM) Assay
# Briefly, fertilized White Leghorn chicken eggs were purchased from Taiwan Provincial Research Institute for Animal Health (Hsin-Chu, Taiwan) and incubated at 37° C. with 60% humidity. On day 3, a square window was opened in the shell, and 2 to 3 ml of albumen was removed to allow detachment of the developing CAM. The window was sealed with a glass, and the eggs were returned to the incubator. […] The CAMs were examined daily until day 10-12, when the angiogenic response peaks, and photographed in ovo with a stereomicroscope equipped with Zeiss MC63 camera system (Zeiss, Oberkochen, Germany). The experiments were carried out using 10 eggs per group.
# [11] = ST104P 500 ng pellet without bFGF
# [12] = ST104P 1000 ng pellet without bFGF
substance,measurement,setting,value
"bFGF: Recombinant basic fibroblast growth factor, used as chemoattractant and as inducer of corneal angiogenesis in hydron pellets [reference compound]",Area (mm^2) of neovascularization,[1],1.42±0.28 mm^2
same,Length (mm) of new vessels,[1],1.36±0.4 mm and 1.36 ± 0.40 mm
"tetrameric cyclic compound of 4,5-dihydroxynaphthalene-2, 7, disulfonic acid linked by methylene bridges [ST104P]","IC50, migration toward chemoattractant bFGF",BAEC [2],100 µg/mL
same,"IC50, migration toward chemoattractant bFGF",EA.hy926,100 µg/mL
same,vessel-like (tube) structure in Matrigel,BAEC [3],effectively abolished
same,vessel-like (tube) structure in Matrigel,EA.hy926 cells,effectively abolished
same,secretion of MMP-2,[4],potently inhibited
same,secretion of MMP-9,[5],potently inhibited
same,weight loss or adverse effects in treated mice,Lewis lung carcinoma; ST104P 100 μg injection,no evident weight loss or adverse effects
same,decrease of tumor size versus saline-treated group,"Lewis lung carcinoma; ST104P 100 μg injection, four times",~40%
same,average tumor size,"Lewis lung carcinoma; ST104P 100 μg injection, four times, saline group 4876±670, P<0.05",2620±320 mm^3
same,survival of tumor-bearing mice,"Lewis lung carcinoma; ST104P 100 μg, versus vehicle, Kaplan-Meier",significantly enhanced the survival rates; also recorded: survived significantly longer
same,tolerability in animals,[6],well tolerated
same,cytotoxicity by morphological analysis,[7],not very toxic
same,proliferation in different types of cells,different types of cells,moderately inhibited the proliferation
same,Area (mm^2) of neovascularization,[1]; listed as bFGF + ST104P,0.12 ± 0.11* mm^2
same,Length (mm) of new vessels,[1]; listed as bFGF + ST104P,0.17 ± 0.06* mm
same,Area (mm^2) of neovascularization,[1]; listed as bFGF plus ST104P,0.12±0.11 mm^2
same,Length (mm) of new vessels,[1]; listed as bFGF plus ST104P,0.17±0.06 mm
same,average vessel length,"[8]; ST104P eye drop 100 μg/ml three times daily, day 7, PBS eye drop 1.36±0.4, P<0.01",0.39±0.15 mm
same,neovascularized area,"[8]; ST104P eye drop 100 μg/ml three times daily, day 7, PBS eye drop 1.42±0.28, P<0.01",0.28±0.19 mm^2
same,effect on bFGF-induced cornea angiogenesis,[8]; ST104P eye drop 10-20 μg/ml,did not elicit inhibitory effect
same,neovascularization by histological analysis,"[8]; ST104P eye drops 50 and 100 μg/ml, 7 days, hematoxylin and eosin",no significant neovascularization
same,toxicity to the cornea / other eye cells by histological analysis,"[8]; ST104P eye drops, 7 days",appears normal histologically without apparent adverse effects; also recorded: without overt cytotoxicity
same,water solubility,Water solubility,excellent water solubility
same,Area (mm^2) of neovascularization,[9]; [11],0 mm^2
same,Length (mm) of new vessels,[9]; [11],0 mm
same,Area (mm^2) of neovascularization,[9]; [12],0 mm^2
same,Length (mm) of new vessels,[9]; [12],0 mm
same,induction of neovascularization by pellets without bFGF,[9]; ST104P pellets alone in rat corneas,did not induce neovascularization
same,inhibition of angiogenesis in CAM,"[10]; 50 μg per CAM, 8-day old chick embryos",50%
same,mortality of chick embryos,"[10]; 200 μg per CAM, 9 out of 10 died",90%

# — patent publication US7709538B2 (Sagittarius Life Science Corp., priority 2004, dated 2010)
